# Experimental data as given in US9932314B2, “Pyrazole compounds and their use as T-type calcium channel blockers” (IDORSIA PHARMACEUTICALS LTD, priority 2015, dated 2018).
# Biological target: T1, voltage-dependent T-type calcium channel subunit alpha-1G (Cav3.2) (Homo sapiens, UniProt O95180)
# T1 construct: expressed in transfected cells; host or cells: HEK293
# Test: FLIPR calcium flux assay, HEK293 cells recombinantly expressing Cav3.2
# Format: cell-based
# Settings: Cav3.2-channel, Fluo-4-AM, 3 min incubation, stimulation with 10 mM CaCl2
# In short: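 HEK293 cells stably expressing human Cav3.2 were loaded with Fluo-4-AM. Compounds diluted in TEAC buffer (pH 7.2) were preincubated for 3 min, then Ca2+ entry was triggered by 10 mM final CaCl2. Inhibition curves were fitted sigmoidally to the area under the fluorescence trace.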
# T1 sequence (O95180 whole entry): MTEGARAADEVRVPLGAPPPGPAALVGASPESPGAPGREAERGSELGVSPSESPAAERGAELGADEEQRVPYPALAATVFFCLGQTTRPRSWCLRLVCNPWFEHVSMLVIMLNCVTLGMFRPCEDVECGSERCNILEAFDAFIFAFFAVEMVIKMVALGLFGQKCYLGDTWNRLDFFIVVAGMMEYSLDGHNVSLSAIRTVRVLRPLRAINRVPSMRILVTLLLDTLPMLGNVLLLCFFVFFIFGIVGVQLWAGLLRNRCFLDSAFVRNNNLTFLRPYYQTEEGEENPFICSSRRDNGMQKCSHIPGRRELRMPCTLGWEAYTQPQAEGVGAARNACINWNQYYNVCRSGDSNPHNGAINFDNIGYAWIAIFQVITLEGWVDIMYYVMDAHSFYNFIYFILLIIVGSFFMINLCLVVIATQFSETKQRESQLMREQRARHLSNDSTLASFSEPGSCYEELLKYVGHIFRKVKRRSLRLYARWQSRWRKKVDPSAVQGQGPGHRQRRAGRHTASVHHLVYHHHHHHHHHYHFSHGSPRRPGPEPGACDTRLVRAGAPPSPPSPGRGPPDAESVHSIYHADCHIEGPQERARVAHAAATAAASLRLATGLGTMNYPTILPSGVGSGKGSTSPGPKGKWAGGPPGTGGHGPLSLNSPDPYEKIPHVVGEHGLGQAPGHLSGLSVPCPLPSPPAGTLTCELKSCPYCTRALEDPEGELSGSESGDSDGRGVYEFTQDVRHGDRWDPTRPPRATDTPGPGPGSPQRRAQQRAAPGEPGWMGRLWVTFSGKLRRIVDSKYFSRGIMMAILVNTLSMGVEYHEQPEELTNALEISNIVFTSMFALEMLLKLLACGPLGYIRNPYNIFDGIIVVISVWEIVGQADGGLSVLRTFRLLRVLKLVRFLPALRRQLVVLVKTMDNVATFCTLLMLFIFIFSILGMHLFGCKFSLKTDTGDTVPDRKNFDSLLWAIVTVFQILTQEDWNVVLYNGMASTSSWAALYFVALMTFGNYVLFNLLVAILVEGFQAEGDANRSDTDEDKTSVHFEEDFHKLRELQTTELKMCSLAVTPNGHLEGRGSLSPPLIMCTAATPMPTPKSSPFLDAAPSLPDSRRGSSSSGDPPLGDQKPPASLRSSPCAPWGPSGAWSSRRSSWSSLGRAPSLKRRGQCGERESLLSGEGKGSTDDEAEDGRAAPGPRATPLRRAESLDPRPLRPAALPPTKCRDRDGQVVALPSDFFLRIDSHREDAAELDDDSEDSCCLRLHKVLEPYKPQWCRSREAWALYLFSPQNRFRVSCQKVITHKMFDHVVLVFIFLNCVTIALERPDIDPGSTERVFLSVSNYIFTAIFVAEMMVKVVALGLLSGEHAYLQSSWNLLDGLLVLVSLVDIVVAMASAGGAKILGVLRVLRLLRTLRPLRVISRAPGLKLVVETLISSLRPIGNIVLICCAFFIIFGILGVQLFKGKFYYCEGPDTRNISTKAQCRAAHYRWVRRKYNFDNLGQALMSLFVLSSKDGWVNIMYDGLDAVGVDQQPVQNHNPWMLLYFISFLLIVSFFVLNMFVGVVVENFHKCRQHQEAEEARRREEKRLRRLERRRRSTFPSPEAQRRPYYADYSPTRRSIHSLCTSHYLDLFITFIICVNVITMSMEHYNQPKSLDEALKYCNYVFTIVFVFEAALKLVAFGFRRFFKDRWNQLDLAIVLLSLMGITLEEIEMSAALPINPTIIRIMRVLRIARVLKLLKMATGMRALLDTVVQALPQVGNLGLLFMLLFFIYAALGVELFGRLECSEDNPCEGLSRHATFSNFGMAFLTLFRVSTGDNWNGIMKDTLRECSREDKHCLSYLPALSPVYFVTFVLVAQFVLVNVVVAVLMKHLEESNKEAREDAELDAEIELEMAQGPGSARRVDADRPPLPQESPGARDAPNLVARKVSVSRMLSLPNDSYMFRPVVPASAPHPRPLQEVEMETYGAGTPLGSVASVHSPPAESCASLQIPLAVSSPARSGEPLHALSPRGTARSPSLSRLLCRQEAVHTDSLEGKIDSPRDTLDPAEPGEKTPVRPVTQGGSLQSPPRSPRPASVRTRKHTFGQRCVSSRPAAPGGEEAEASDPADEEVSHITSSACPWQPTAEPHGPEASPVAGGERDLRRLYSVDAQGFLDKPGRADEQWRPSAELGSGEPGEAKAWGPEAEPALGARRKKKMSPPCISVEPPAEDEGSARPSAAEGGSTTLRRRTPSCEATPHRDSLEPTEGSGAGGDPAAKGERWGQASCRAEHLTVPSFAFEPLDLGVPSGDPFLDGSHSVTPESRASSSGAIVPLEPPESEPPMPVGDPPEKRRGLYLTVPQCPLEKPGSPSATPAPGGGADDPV
row,Compound,IC50 [nM]
1,"Cc1cc(CC(=O)Nc2ccn(Cc3ccc(F)c(C#N)n3)n2)ccc1OC(F)(F)F [Example 410, N-[1-(6-Cyano-5-fluoro-pyridin-2-ylmethyl)-1H-pyrazol-3-yl]-2-(3-methyl-4-trifluoromethoxy-phenyl)-acetamide]",17
2,"Cc1cncnc1-c1ccc(CC(=O)Nc2ccn(Cc3ccc(F)cc3)n2)cc1 [Example 92, N-[1-(4-Fluoro-benzyl)-1H-pyrazol-3-yl]-2-[4-(5-methyl-pyrimidin-4-yl)-phenyl]-acetamide]",48
3,"COc1ccc(Cn2ccc(NC(=O)Cc3ccc(C(C)C)cc3)n2)cc1 [Example 7, 2-(4-Isopropyl-phenyl)-N-[1-(4-methoxy-benzyl)-1H-pyrazol-3-yl]-acetamide]",7.9
4,"Cc1cc(CC(=O)Nc2ccn(Cc3cc(C#N)c(F)cn3)n2)cc(C)c1OCC(F)(F)F [Example 416, N-[1-(4-Cyano-5-fluoro-pyridin-2-ylmethyl)-1H-pyrazol-3-yl]-2-[3,5-dimethyl-4-(2,2,2-trifluoro-ethoxy)-phenyl]-acetamide]",17
5,"CN(C)c1ccc(CC(=O)Nc2ccn(Cc3ccc(OC(F)F)cc3)n2)cn1 [Example 36, N-[1-(4-Difluoromethoxy-benzyl)-1H-pyrazol-3-yl]-2-(6-dimethylamino-pyridin-3-yl)-acetamide]",160
6,"Cn1ccc2cc(CC(=O)Nc3ccn(Cc4ccc(C#N)cc4)n3)ccc21 [Example 296, N-[1-(4-Cyano-benzyl)-1H-pyrazol-3-yl]-2-(1-methyl-1H-indol-5-yl)-acetamide]",17
7,"Cc1nc2ccc(CC(=O)Nc3ccn(Cc4ccc(F)c(F)c4)n3)cc2[nH]1 [Example 135, N-[1-(3,4-Difluoro-benzyl)-1H-pyrazol-3-yl]-2-(2-methyl-3H-benzoimidazol-5-yl)-acetamide]",247
8,"CN(C)c1ccc(CC(=O)Nc2ccn(Cc3ccc(Br)cc3)n2)cc1 [Example 239, N-[1-(4-Bromo-benzyl)-1H-pyrazol-3-yl]-2-(4-dimethylamino-phenyl)-acetamide]",2.4
9,"O=C(Cc1ccc2c(c1)OCC(=O)N2)Nc1ccn(Cc2ccc(F)c(F)c2)n1 [Example 208, N-[1-(3,4-Difluoro-benzyl)-1H-pyrazol-3-yl]-2-(3-oxo-3,4-dihydro-2H-benzo[1,4]oxazin-7-yl)-acetamide]",88
10,"COc1ccc(Cn2ccc(NC(=O)Cc3ccc(N4CCC4)nc3)n2)cc1 [Example 101, 2-(6-Azetidin-1-yl-pyridin-3-yl)-N-[1-(4-methoxy-benzyl)-1H-pyrazol-3-yl]-acetamide]",925
11,"CN(c1ccc(CC(=O)Nc2ccn(Cc3ccc(C#N)cc3)n2)cn1)C1CC1 [Example 166, N-[1-(4-Cyano-benzyl)-1H-pyrazol-3-yl]-2-[6-(cyclopropyl(methyl)amino)-pyridin-3-yl]-acetamide]",86
12,"N#Cc1ccc(Cn2ccc(NC(=O)Cc3ccc(N4CCC4)nc3)n2)nc1 [Example 102, 2-(6-Azetidin-1-yl-pyridin-3-yl)-N-[1-(5-cyano-pyridin-2-ylmethyl)-1H-pyrazol-3-yl]-acetamide]",7050
13,"O=C(Cc1ccc(N2CCC(F)(F)C2)cc1)Nc1ccn(Cc2ccc(F)cc2)n1 [Example 77, 2-[4-(3,3-Difluoro-pyrrolidin-1-yl)-phenyl]-N-[1-(4-fluoro-benzyl)-1H-pyrazol-3-yl]-acetamide]",9.1
14,"CC(C)c1ccc(CC(=O)Nc2ccn(Cc3ccc(F)c(C#N)c3)n2)cc1 [Example 282, N-[1-(3-Cyano-4-fluoro-benzyl)-1H-pyrazol-3-yl]-2-(4-isopropyl-phenyl)-acetamide]",12
15,"O=C(Cc1ccc(CC2CC2)cc1)Nc1ccn(Cc2ccc(F)cc2)n1 [Example 158, 2-(4-Cyclopropylmethyl-phenyl)-N-[1-(4-fluoro-benzyl)-1H-pyrazol-3-yl]-acetamide]",11
16,"N#Cc1ccc(Cn2ccc(NC(=O)Cc3ccc(OCC4COC4)cc3)n2)cc1F [Example 262, N-[1-(4-Cyano-3-fluoro-benzyl)-1H-pyrazol-3-yl]-2-[4-(oxetan-3-ylmethoxy)-phenyl]-acetamide]",155
17,N-[1-(5-Cyano-pyridin-2-ylmethyl)-1H-pyrazol-3-yl]-2-[4-(1-methyl-cyclopropyl)-phenyl]-acetamide [Example 375],9.9
18,"N#Cc1nc(Cn2ccc(NC(=O)Cc3ccc(OCC(F)(F)F)c(C4CC4)c3)n2)ccc1F [Example 408, N-[1-(6-Cyano-5-fluoro-pyridin-2-ylmethyl)-1H-pyrazol-3-yl]-2-[3-cyclopropyl-4-(2,2,2-trifluoro-ethoxy)-phenyl]-acetamide]",8.5
19,"N#Cc1ccc(Cn2ccc(NC(=O)Cc3ccc(C4(F)COC4)cc3)n2)cc1F [Example 253, N-[1-(4-Cyano-3-fluoro-benzyl)-1H-pyrazol-3-yl]-2-[4-(3-fluoro-oxetan-3-yl)-phenyl]-acetamide]",57
20,"CN(C)c1ccc(CC(=O)Nc2ccn(Cc3ccc(C#N)c(F)c3)n2)cn1 [Example 58, N-[1-(4-Cyano-3-fluoro-benzyl)-1H-pyrazol-3-yl]-2-(6-dimethylamino-pyridin-3-yl)-acetamide]",285
21,"CC1(COc2ccc(CC(=O)Nc3ccn(Cc4ccc(F)c(F)c4)n3)cc2)CC(F)(F)C1 [Example 243, N-[1-(3,4-Difluoro-benzyl)-1H-pyrazol-3-yl]-2-[4-(3,3-difluoro-1-methyl-cyclobutylmethoxy)-phenyl]-acetamide]",37
22,"Cc1cc(CC(=O)Nc2ccn(Cc3cc(C#N)c(F)cn3)n2)ccc1OCCC(F)(F)F [Example 421, N-[1-(4-Cyano-5-fluoro-pyridin-2-ylmethyl)-1H-pyrazol-3-yl]-2-[3-methyl-4-(3,3,3-trifluoro-propoxy)-phenyl]-acetamide]",41
23,"CC(C)Cc1ccc(CC(=O)Nc2ccn(Cc3ccc(F)cc3)n2)cc1 [Example 147, N-[1-(4-Fluoro-benzyl)-1H-pyrazol-3-yl]-2-(4-isobutyl-phenyl)-acetamide]",13
24,"CC(C)c1ccc(CC(=O)Nc2ccn(Cc3ccc(N4CC[C@H](F)C4)cn3)n2)cc1 [Example 108, N-{1-[5-((S)-3-Fluoro-pyrrolidin-1-yl)-pyridin-2-ylmethyl]-1H-pyrazol-3-yl}-2-(4-isopropyl-phenyl)-acetamide]",322
25,"CN(C)c1ccc(CC(=O)Nc2ccn(Cc3ccc(F)cn3)n2)cc1 [Example 149, 2-(4-Dimethylamino-phenyl)-N-[1-(5-fluoro-pyridin-2-ylmethyl)-1H-pyrazol-3-yl]-acetamide]",85
26,"O=C(Cc1ccc(OC2CC2)cc1)Nc1ccn(Cc2ccc(F)cc2)n1 [Example 63, 2-(4-Cyclopropoxy-phenyl)-N-[1-(4-fluoro-benzyl)-1H-pyrazol-3-yl]-acetamide]",38
27,"N#Cc1c(F)cc(Cn2ccc(NC(=O)Cc3ccc(OCC4COC4)cc3)n2)cc1F [Example 360, N-[1-(4-Cyano-3,5-difluoro-benzyl)-1H-pyrazol-3-yl]-2-[4-(oxetan-3-ylmethoxy)-phenyl]-acetamide]",360
28,"N#CC1(c2ccc(CC(=O)Nc3ccn(Cc4ccc(F)c(F)c4)n3)cc2C(F)(F)F)CC1 [Example 404, 2-[4-(1-Cyano-cyclopropyl)-3-trifluoromethyl-phenyl]-N-[1-(3,4-difluoro-benzyl)-1H-pyrazol-3-yl]-acetamide]",14
